From patent US10314812B2, “Suspension compositions of physiologically active phenolic compounds and methods of making and using the same” (Humanetics Corporation, priority 2013, dated 2019)

How the values were obtained:
[1] = Particle size analysis by laser diffraction (LA-950, Horiba); type: physicochemical; settings: for particle size distribution (PSD) after milling: 25% (w/v) genistein in olive oil, nanomilled 60 minutes in YTZ media, initial measurement; for D(0.50) particle size: material as provided by the commercial supplier (DSM), before milling
Text: In the context of the present description, the particle size distribution of a given material is provided in volume diameter as measured in accordance with USP 429 using a laser diffraction particle size analyzer operating in the Mie Scattering Theory diffraction mode and equipped with a suspension dispersion sample chamber (e.g., as available from Horiba Instruments, Irvine, Calif., USA). For purposes of the present description, volume diameter is given as a particle size distribution defined by one or more of D (0.10), D (0.50) and D (0.90). When referred to herein, the term D (0.10) indicates the volume frequency distribution of particles for which 10% of the sample is below the referenced size, the term D (0.50) indicates the volume frequency distribution of particles for which 50% of the sample is below the referenced size, and the term D (0.90) indicates the volume frequency distribution of particles for which 90% of the sample is below the referenced size. In addition to measurement of the particle size distribution via laser diffraction, the results from such particle size analysis and/or the morphology of the particles may be confirmed using known electron microscopy techniques.
Genivida™, a food grade genistein, and Bonistein®, a pharmaceutical grade genistein, were obtained from a commercial supplier (DSM, http://www.dsm.com/corporate/home.html) and subjected to particle size analysis. […] FIG. 1 and FIG. 2 illustrate the PSD of the Genivida™ and Bonistein® materials as supplied from DSM.
The Genivida™ and Bonistein® materials were dispersed within the olive oil to provide a suspension composition that included 25% (w/v) genistein. Several samples ≈200 ml per sample) of the 25% w/v genistein/olive oil suspension were divided and milled using a, MiniCer® nanomill from Netzsch. The samples containing Bonistein® were milled for 60 minutes in a 0.3 mm YTZ media (yttria stabilized zirconium oxide (ZrO2) beads). Samples containing Genivida™ were milled for 60 minutes in a 0.5 mm YTZ media.
A selection of the samples containing Genivida™ were subjected to a pre-milling process (referred to or labeled as “pre-grind” samples). The pre-milling process also utilized a MiniCer® nanomill from Netzsch with YTZ milling media. However, the milling media utilized in the pre-milling step was 1.25 mm YTZ media. Pre-milling was carried out for 20 minutes, with the purpose of reducing the D(0.50) particle size of the Genivida™ to below 10 μm. After pre-milling, those samples subjected to the pre-milling procedure were milled in a MiniCer® nanomill for 60 minutes in a 0.3 mm YTZ media.
After the milling steps, particle size analysis was completed for each sample. […]

[2] = Particle size stability of genistein/olive oil nanosuspensions stored at ambient temperature (laser diffraction and TEM); type: physicochemical; settings: suspended in olive oil, glass vials
Text: After the milling steps, particle size analysis was completed for each sample. […] An amount of each nanosuspension composition was aliquoted into 3.7 cc glass vials, which were then stored at ambient temperature.
At approximately two months, samples were taken from each vial and subjected to laser diffraction particle size analysis and TEM analysis.
At the 3-month time point, a sample of each nanosuspension was taken from each vial and again subjected to laser diffraction particle size analysis and TEM analysis. Even after three months, the genistein material suspended in the olive oil remained nano-sized, with the D(0.50) at 3 months in all cases being <300 nm (see, FIGS. 3A-3C).
For each of the samples at each time point, particle size analysis conducted by laser diffraction was carried out using a LA-950 particle size analyzer from Horiba Scientific, Edison, N.J.

| particle size distribution (PSD) after milling [1] | D(0.50) particle size [1] [μm] | D(0.50) at 3 months ([2]; 3 months, all samples) [nm] | particle size distribution (PSD) after storage ([2]; approximately two months, laser diffraction and TEM) | SMILES |
| --- | --- | --- | --- | --- |
| nanoparticulate PSD | 29.5 | – | – | O=c1c(-c2ccc(O)cc2)coc2cc(O)cc(O)c12 [Genivida™] |
| – | – | < 300 | maintained a nanoparticulate PSD | O=c1c(-c2ccc(O)cc2)coc2cc(O)cc(O)c12 [genistein, 5,7-dihydroxy-3-(4-hydroxyphenyl)-chromen-4-one] |
| nanoparticulate PSD | 10.7 | – | – | O=c1c(-c2ccc(O)cc2)coc2cc(O)cc(O)c12 [Bonistein®] |
